Experimental data published in PMC12064818, “A general assay platform to study protein pharmacology using ligand-dependent structural dynamics” (Nature Communications, 2025).

Target: T1, FLuc-C-HiBiT (Photinus pyralis, UniProt P08659)
T1 construct: firefly luciferase with C-terminal HiBiT tag, E. coli expressed
Assay: biochemical
Details: enzyme activity, 10 uM ATP; read-out: IC50 or SDR50 (mM) / FLuc E
Method: The enzyme activity of FLuc-N-HiBiT, FLuc-C-HiBiT, and FLuc-C-NLuc was measured similar to P. pyralis firefly luciferase (FLuc) as previously described. […] Compounds and controls were added to each plate as described in Supplementary Data 8 with a Hornet pintool system (Wako Automation). Compounds were incubated with respective enzymes for 30–60 min at room temperature protected from light and covered by solid metal lid to prevent evaporation. […] Luciferin was incubated with FLuc enzyme for 5 min before FLuc activity was then measured on a ViewLux CCD imager (PerkinElmer), with exposure times up to ten seconds with medium to high gain settings. Data were normalized to average no enzyme control as 100% enzyme inhibition and average DMSO neutral control. See Supplementary Table 4 for additional details. As a proof-of-concept target, we appended the sensor protein or corresponding α-peptide to either the N- or C-terminus of the target protein firefly luciferase (FLuc), an ATP cofactor-dependent monooxygenase (Supplementary Fig. 1a) having a broad, well-characterized and accessible ligand pharmacology. For initial characterization of the SDR concept, either NLuc or the 11 amino acid HiBiT tag (α-peptide) and complementary 18 kDa LgBiT subunit (ω-fragment), which self-assemble to reconstitute functional NLuc enzyme[24] were tested. In contrast to the ATP-dependent bioluminescent FLuc enzyme, NLuc generates a bright bioluminescence in an ATP-independent manner from the direct oxidation of furimazine (Supplementary Fig. 1b). […] Next, FLuc-C-NLuc, FLuc-N-HiBiT or FLuc-C-HiBiT were assayed with the same inhibitor in an SDR assay format by monitoring bioluminescence from NLuc or its reconstitution by α-complementation with LgBiT. Measurements of NLuc activity were made either in the absence or presence of the FLuc ATP cofactor, as NLuc bioluminescence is ATP-independent.

T1 sequence (P08659 whole entry, looked up): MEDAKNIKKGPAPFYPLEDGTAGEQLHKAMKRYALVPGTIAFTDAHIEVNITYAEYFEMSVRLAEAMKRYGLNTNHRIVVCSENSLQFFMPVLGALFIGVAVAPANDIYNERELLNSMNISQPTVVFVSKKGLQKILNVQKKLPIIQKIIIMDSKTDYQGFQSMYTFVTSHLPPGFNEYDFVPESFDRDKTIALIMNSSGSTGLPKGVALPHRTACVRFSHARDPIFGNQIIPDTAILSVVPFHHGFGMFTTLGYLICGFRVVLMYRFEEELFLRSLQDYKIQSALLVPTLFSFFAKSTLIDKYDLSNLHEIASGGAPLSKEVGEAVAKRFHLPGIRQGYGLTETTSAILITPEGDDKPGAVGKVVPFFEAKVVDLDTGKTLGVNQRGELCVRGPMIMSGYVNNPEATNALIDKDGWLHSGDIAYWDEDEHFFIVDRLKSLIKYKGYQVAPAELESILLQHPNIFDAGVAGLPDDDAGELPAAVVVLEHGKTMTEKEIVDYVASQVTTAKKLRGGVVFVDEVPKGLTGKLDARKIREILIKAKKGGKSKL

SMILES	IC50 [µM]
Cc1ccc2oc(=O)c(-c3nc(-c4cccs4)no3)cc2c1 [NCGC00123382-01]	> 30
CCOCC1(C)COc2ccc(C(=O)Nc3ccccc3)cc2N1 (stereo not shown) [NCGC00416079-01]	18
COc1ccc(C(=O)Nc2ccccc2-c2nc3ccccc3s2)c(OC)c1 [NCGC00135640-01]	> 30
Cc1ccc(Cn2cc(-c3ccncc3)cc2C(=O)O)cc1 [NCGC00432741-01]	> 30
Cc1ccc(-c2nc3ccccc3s2)cc1NC(=O)COc1ccccc1 [NCGC00098596-01]	> 30
O=C(c1ccc(F)cc1)N1CCn2c(nnc2C2CC2)C1 [NCGC00480252-01]	> 30
COc1ccc(OCC(=O)Nc2ccc(O)c(-c3nc4ccccc4s3)c2)cc1 [NCGC00099132-01]	> 30
CC1(NC(=O)C2CC2)CN(Cc2nc(-c3cccc(F)c3)cs2)C1 [NCGC00410350-01]	20.2
Nc1ncnc2c1ncn2[C@H]1O[C@H](CO)[C@@H](O)[C@@H]1O [NCGC00262556-01]	> 30
COc1cccc(CN2CCc3c(cc(C(=O)Nc4cc(C)ccc4OC)n3C)C2)c1 [NCGC00430592-01]	> 30
COc1ccc(CNC(=O)C[C@@H]2C[C@@H](C(C)C)[C@H](CNC(=O)c3cccnc3)C=C2C)cc1 [NCGC00394780-01]	> 30
COc1ccc(Br)cc1C(=O)Nc1nc2ccc(F)cc2s1 [NCGC00102907-01]	> 30
COc1cccc(-c2ncc3c(n2)OCCN(Cc2ccc(F)cc2F)C3=O)c1 [NCGC00413648-01]	16.1
Cc1cc(-c2cc3c(cn2)CN(Cc2ccccn2)CCN3)ccn1 [NCGC00411150-01]	20.2
COc1ccc(N2CCN(C(=O)Cn3cccc3-c3nc(-c4ccc5c(c4)OCO5)no3)CC2)cc1 [NCGC00445315-01]	> 30
COc1ccc(OCC(=O)Nc2nc(-c3ccc(Br)cc3)ns2)cc1 [NCGC00118248-01]	> 30
O=C(/C=C/c1ccccc1)Nc1cc(-c2nc3cc(Cl)ccc3o2)ccc1Cl [NCGC00102391-01]	> 30

SMILES	IC50 [µM]
COc1cccc(CN2CCNc3cc(Nc4cccnc4)ncc3C2)c1 [NCGC00411206-01]	18
CC1(NC(=O)C2CC2)CN(Cc2nc(-c3ccccc3OCc3ccccc3)cs2)C1 [NCGC00410379-01]	16.1
COc1cc(OC)cc(C(=O)Nc2ccccc2-c2nc3ccccc3s2)c1 [NCGC00098479-01]	> 30
COc1ccc(NC(=O)N[C@@H]2C=C[C@@H](c3c(C)nn(-c4ccc(C(C)C)cc4)c3C)C2)cc1 [NCGC00421407-01]	> 30
Clc1ccc(Nc2ncc(-c3cccnc3)c3c2OCC3)cc1 [NCGC00412736-01]	18
Cn1ccnc1C(O)c1cc2n(n1)CCN(c1ncnc3[nH]cnc13)C2 (stereo not shown) [NCGC00422809-01]	> 30
COc1ccc(CC(=O)Nc2ccc(-c3nc4ccccc4s3)cc2Cl)cc1OC [NCGC00137804-01]	> 30
CCCCOc1nc(N)c2[nH]c(=O)n(Cc3cccc(CC(=O)OC)c3)c2n1 [NCGC00508895-01]	> 30
c1nc(N2C[C@@H](c3ccc4c(c3)OCO4)[C@@H]3[C@H]2C2CCN3CC2)c2nc[nH]c2n1 [NCGC00444647-01]	> 30
O=C(c1ccccc1C(F)(F)F)N1CCOc2c(cc(-c3nc4ccccc4s3)cc2OC2CCOC2)C1 (stereo not shown) [NCGC00240022-01]	> 30
COc1cccc(CN2CCc3nc(C(=O)Nc4nc(C)cs4)oc3CC2)c1 [NCGC00413306-01]	18
CNC(=O)c1cccc(-c2cnc(NC(=O)c3ccncc3)c3c2CCO3)c1 [NCGC00412795-01]	20.2
c1ccc(Nc2cc3c(cn2)CN(CC2CCOC2)CCN3)cc1 (stereo not shown) [NCGC00411051-01]	20.2
OCc1cccc(-c2cc3c(cn2)CN(Cc2ccccc2)CCN3)c1 [NCGC00411045-01]	18
O=C(O)[C@@H]1CN(Cc2ccccc2)C[C@@H]1C(=O)N1CCc2ccccc21 [NCGC00464394-01]	> 30
COc1ccc(-c2cnc(Nc3ccccc3)c3c2CCO3)cn1 [NCGC00412779-01]	18
Clc1ccc2c(c1)-n1cc(-c3ccccc3)nc1CO2 [NCGC00164952-01]	> 30

The remaining compounds from weak to strong by IC50, led by results:

IC50 [µM]	SMILES
15.7	O=C(O)c1ccccc1-c1noc(-c2ccccc2F)n1 [NCGC00183910-01]
14.3	O=C1c2cnc(-c3cccc(F)c3)nc2OCCN1c1ccccc1 [NCGC00413626-01]
12.4	CN(Cc1cccnc1)c1ccc(-c2nc(COc3ccccc3)no2)cn1 [NCGC00425502-01]
11.1	CNc1nc(C(=O)NCc2ccc3[nH]c(-c4ccc(F)cc4)c(C)c3c2)cs1 [NCGC00443141-01]
11.1	O=C(Nc1ccc([C@H]2OCC(=O)N(Cc3ccncc3)[C@@H]2CO)cc1)c1ccc(C(F)(F)F)cc1 [NCGC00395114-01]
11.1	COc1ccccc1-c1nc2cc(NC(=O)c3ccccc3Cl)ccc2o1 [NCGC00098320-01]
11.1	Cc1ccc2nc(-c3ccc(NC(=O)COc4c(C)ccc(C)c4C)cc3)sc2c1 [NCGC00099580-01]
11.1	COc1cccc(-c2noc(COc3ccccc3Cl)n2)c1 [NCGC00115123-01]
10.1	CNC(=O)c1cccc(-c2cnc(Nc3ccc(Cl)cn3)c3c2CCO3)c1 [NCGC00412786-01]
9.89	Cc1ccc(C)c(N2CCN(C(=O)c3ccc(NC(=O)c4nsc5ccccc45)cc3)CC2)c1 [NCGC00134456-01]
9.89	O=C(Nc1c(C(=O)O)oc2ccccc12)c1ccc(C(F)(F)F)cc1 [NCGC00141808-01]
9.89	CCc1noc(-c2nc(-c3ccc4c(c3)OCO4)no2)n1 [NCGC00450064-01]
9.89	CC(C)CCNC(=O)c1ccc2c(c1)nc1n2CCCCC1 [NCGC00133608-01]
9.89	Cn1c(=O)c2ccnn2c2ccc(C(=O)Nc3ccc4c(c3)OCCO4)cc21 [NCGC00470050-01]
8.81	O=C1NCCCCCCN(C(=O)Nc2ccc3c(c2)OCCO3)[C@H]2CCCC[C@@H]12 [NCGC00466580-01]
8.81	Cc1cn2nc(C(=O)Nc3ccc(C(=O)NCCc4cccs4)cc3)cc2c(=O)[nH]1 [NCGC00453964-01]
8.81	Clc1cccc(-c2nc3ccccc3s2)c1 [NCGC00687703-01]
7.18	CC(=O)NC1(C)CCN(Cc2ccc(-c3ccc4c(ccn4C)c3)cc2)C1 (stereo not shown) [NCGC00410408-01]
7	O=C(O)c1ccc(-c2noc(-c3cccc(Cl)c3)n2)cc1 [NCGC00168100-03]
7	COc1cccc(NC(=O)CCc2nc(-c3ccc(C(C)(C)C)cc3)no2)c1 [NCGC00115609-01]

IC50 [µM]	SMILES
5.7	C[C@@H]1C(=O)O[C@H]2[C@H]1CC[C@@]1(C)Cc3sc(NC(=O)COCC(=O)O)nc3[C@@H](C)[C@H]21 [NCGC00391314-01]
5.56	COc1ccc(C(=O)N2CCc3ccc(C(=O)Nc4ccc5c(c4)OCCO5)cc32)cc1 [NCGC00430278-01]
5.56	CCNC(=O)N1CC(Oc2ccc(-c3nc(-c4ccccc4)no3)cc2)C1 [NCGC00441125-01]
3.51	CCOC(=O)c1ccc(NC(=O)c2nsc3ccccc23)cc1 [NCGC00113675-01]
2.79	CCc1ccc(NC(=O)N2CCCC(c3noc(COc4ccccc4)n3)C2)cc1 (stereo not shown) [NCGC00475587-01]
2.79	Cc1ccc(C(=O)Nc2ccccc2C(=O)O)cc1[S+](=O)([O-])N1CCCCCC1 [NCGC00098472-01]
2.79	Cc1ccc(-n2ncc3c(NC4CCCCC4)ncnc32)cc1Cl [NCGC00139149-01]
2.48	Nc1nc2c(nc(S)n2[C@@H]2O[C@H](CO)[C@@H](O)[C@H]2O)c(=O)[nH]1 [NCGC00096124-01]
1.97	O=C(Nc1ccc(F)cc1)Nc1cccc(-c2ccc(N3CCOCC3)nn2)c1 [NCGC00427578-01]
1.76	CCNC(=O)C1C(c2cccc(NC(=O)c3ccc(C)cc3)c2)OC(=O)N1Cc1ccc(F)cc1 (stereo not shown) [NCGC00473984-01]
1.57	O=C(c1cc2ccc3cccnc3c2[nH]1)N1CCCCC1 [NCGC00126930-01]
1.4	COc1ccc(C(=O)Nc2cc(C)c(O)c(-c3nc4ccccc4s3)c2)cc1OC [NCGC00103306-01]
0.881	CCC(CC)c1nn2cc(-c3ccccc3)nc2s1 [NCGC00117460-01]
0.881	CCc1ccc(C2=CC(c3cccc(C)c3)n3c(nc4ccccc43)N2)cc1 (stereo not shown) [NCGC00140745-01]
0.881	COc1ccc(NC(=O)N2CCc3c(C(=O)Nc4ccc5c(c4)OCO5)cccc32)cc1 [NCGC00430172-01]
0.785	Cc1ccc(-n2ncc3c(N4CCCCC4)ncnc32)cc1Cl [NCGC00139209-01]
0.7	CCOc1ccc(-c2cc3c(=O)n(CCNC(=O)c4cccc(C#N)c4)ccn3n2)cc1 [NCGC00456938-01]
0.279	Cc1ccc2sc(-c3ccc(N)cc3)nc2c1 [NCGC00117377-01]
0.00351	O=C(O)c1cccc(-c2noc(-c3ccc(C(F)(F)F)cc3)n2)c1 [NCGC00168770-01]
